Earlier results in patent publication US20220162327A1, “ANTI-CCR5 AGENTS AND METHODS OF TREATMENT THAT BLOCK CANCER METASTASIS OR ENHANCE CELL DEATH INDUCED BY DNA DAMAGING CHEMOTHERAPY” (CytoDyn Inc., priority 2019, published 2022).

Legend:
CCR5 [1] = molecular target: T1, CCR5 (Homo sapiens, UniProt P51681); design: endogenous in cells; host or cells: CD4+ T cells; conditions: cited from earlier work
[2] = tested on: breast cancer tumor model; conditions: cited from earlier work
CCL5 = conditions: human colorectal cancer liver metastasis; cited from earlier work
CCR5 [3] = molecular target: T1, CCR5; conditions: activated human T cells, cited from earlier work

T1 sequence (P51681 whole entry): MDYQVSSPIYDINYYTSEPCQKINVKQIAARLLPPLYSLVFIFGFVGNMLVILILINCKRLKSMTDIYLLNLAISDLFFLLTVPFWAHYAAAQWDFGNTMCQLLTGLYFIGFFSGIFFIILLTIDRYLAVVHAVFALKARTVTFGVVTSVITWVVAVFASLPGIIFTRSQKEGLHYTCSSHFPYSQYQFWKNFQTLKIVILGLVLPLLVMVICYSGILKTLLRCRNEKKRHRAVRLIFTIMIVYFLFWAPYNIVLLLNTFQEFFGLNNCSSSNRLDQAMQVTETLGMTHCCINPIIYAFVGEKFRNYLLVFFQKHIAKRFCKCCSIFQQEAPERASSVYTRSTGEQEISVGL

Molecule | cell killing mediated by DNA-damaging chemotherapeutic agents (CCR5 [1]) | lung metastases [2] | effect on tumor-associated macrophages and tumor cells (CCL5) | production of TNF-α and IFN-γ (CCR5 [3]; high doses) | CCR5 and CCR2 internalization induced by CCL5 and CCL2 (CCR5 [3]) | T cell chemotactic activities toward cognate ligands (CCR5 [3])
COC[C@@H](c1ccc(C(F)(F)F)cc1)N1CCN(C2(C)CCN(C(=O)c3c(C)ncnc3C)CC2)C[C@@H]1C [vicriviroc] | dramatically enhanced cell killing |  |  |  |  | 
maraviroc | dramatically enhanced cell killing | effectively blocked lung metastases | led to repolarization of tumor-associated macrophages and tumor cell death | tends to decrease production of TNF-α and IFN-γ | can block CCR5 and CCR2 internalization processes induced by CCL5 and CCL2 | inhibit T cell chemotactic activities
